Experimental data from PubChem BioAssay (NCI).
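Following 48 hours of exposure in 96-well plates, responses at five concentrations were used to interpolate endpoints linearly. Abbreviation: GI50, concentration required for 50% inhibition of growth. TGI: concentration producing complete growth inhibition.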

Experiments:
Assay in all cases: NCI tumour cell line growth inhibition, 48 h
[1] = system: 786-0 renal
[2] = system: A549 NSCLC
[3] = system: ACHN renal
[4] = system: BT-549 breast
[5] = system: CAKI-1 renal
[6] = system: CCRF-CEM leukemia
[7] = system: COLO 205 colon
[8] = system: DU-145 prostate
[9] = system: EKVX NSCLC
[10] = system: HCC-2998 colon
[11] = system: HCT-15 colon
[12] = system: HOP-62 NSCLC
[13] = system: HOP-92 NSCLC
[14] = system: HS 578T breast
[15] = system: HT29 colon
[16] = system: IGROV1 ovarian
[17] = system: K-562 leukemia
[18] = system: KM12 colon
[19] = system: LOX IMVI melanoma
[20] = system: M14 melanoma
[21] = system: MALME-3M melanoma
[22] = system: MCF7 breast
[23] = system: MDA-MB-231 breast
[24] = system: MDA-MB-435
[25] = system: MOLT-4 leukemia
[26] = system: NCI-H226 lung
[27] = system: NCI-H23 lung
[28] = system: NCI-H460 lung
[29] = system: NCI-H522 lung
[30] = system: NCI/ADR-RES ovarian
[31] = system: OVCAR-3 ovarian
[32] = system: OVCAR-4 ovarian
[33] = system: OVCAR-5 ovarian
[34] = system: OVCAR-8 ovarian
[35] = system: PC-3 prostate
[36] = system: RPMI-8226 leukemia
[37] = system: RXF 393 renal
[38] = system: SF-268 CNS
[39] = system: SF-295 CNS
[40] = system: SF-539 CNS
[41] = system: SK-MEL-2 melanoma
[42] = system: SK-MEL-28 melanoma
[43] = system: SK-MEL-5 melanoma
[44] = system: SK-OV-3 ovarian
[45] = system: SN12C renal
[46] = system: SNB-19 CNS
[47] = system: SNB-75 CNS
[48] = system: SR leukemia
[49] = system: SW-620 colon
[50] = system: T-47D breast
[51] = system: TK-10 renal
[52] = system: U251 CNS
[53] = system: UACC-62 melanoma
[54] = system: UO-31 renal
[55] = system: A498 renal
[56] = system: HCT-116 colon
[57] = system: HL-60(TB) leukemia
[58] = system: UACC-257 melanoma

## COc1cc(-c2cc3ncccc3c3[nH]c(=O)c4cccnc4c23)cc(OC)c1OC
[1]
  GI50: 0.722 µM
  TGI: > 100 µM
[2]
  GI50: 1.28 µM
  TGI: > 100 µM
[3]
  GI50: 0.885 µM
  TGI: > 100 µM
[4]
  GI50: 0.427 µM
  TGI: 55.2 µM
[5]
  GI50: 0.663 µM
  TGI: > 100 µM
[6]
  GI50: 0.623 µM
  TGI: > 100 µM
[7]
  GI50: 0.538 µM
  TGI: > 100 µM
[8]
  GI50: 0.907 µM
  TGI: > 100 µM
[9]
  GI50: 0.818 µM
  TGI: > 100 µM
[10]
  GI50: 2.08 µM
  TGI: > 100 µM
[11]
  GI50: 0.683 µM
  TGI: > 100 µM
[12]
  GI50: 7.76 µM
  TGI: > 100 µM
[13]
  GI50: 12.2 µM
  TGI: > 100 µM
[14]
  GI50: 0.914 µM
  TGI: > 100 µM
[15]
  GI50: 0.397 µM
  TGI: > 100 µM
[16]
  GI50: 3.61 µM
  TGI: > 100 µM
[17]
  GI50: 0.392 µM
  TGI: > 100 µM
[18]
  GI50: 0.651 µM
  TGI: > 100 µM
[19]
  GI50: 0.511 µM
  TGI: > 100 µM
[20]
  GI50: 0.425 µM
  TGI: > 100 µM
[21]
  GI50: 16.2 µM
  TGI: > 100 µM
[22]
  GI50: 0.394 µM
  TGI: > 100 µM
[23]
  GI50: 1.54 µM
  TGI: > 100 µM
[24]
  GI50: 0.181 µM
  TGI: > 100 µM
[25]
  GI50: 0.782 µM
  TGI: 28.8 µM
[26]
  GI50: 23.6 µM
  TGI: > 100 µM
[27]
  GI50: 2.3 µM
  TGI: > 100 µM
[28]
  GI50: 0.433 µM
  TGI: > 100 µM
[29]
  GI50: 0.328 µM
  TGI: 82.5 µM
[30]
  GI50: 0.482 µM
  TGI: > 100 µM
[31]
  GI50: 0.329 µM
  TGI: > 100 µM
[32]
  GI50: 8.87 µM
  TGI: > 100 µM
[33]
  GI50: > 100 µM
  TGI: > 100 µM
[34]
  GI50: 2.51 µM
  TGI: > 100 µM
[35]
  GI50: 0.858 µM
  TGI: > 100 µM
[36]
  GI50: 1.3 µM
  TGI: 47.5 µM
[37]
  GI50: 0.818 µM
  TGI: 26.2 µM
[38]
  GI50: 2.16 µM
  TGI: > 100 µM
[39]
  GI50: 0.379 µM
  TGI: 25.4 µM
[40]
  GI50: 0.488 µM
  TGI: 5.84 µM
[41]
  GI50: 0.833 µM
  TGI: > 100 µM
[42]
  GI50: 0.957 µM
  TGI: > 100 µM
[43]
  GI50: 0.51 µM
  TGI: 3.17 µM
[44]
  GI50: 1.35 µM
  TGI: > 100 µM
[45]
  GI50: 14.3 µM
  TGI: > 100 µM
[46]
  GI50: 0.981 µM
  TGI: > 100 µM
[47]
  GI50: 0.271 µM
  TGI: 62.9 µM
[48]
  GI50: 0.359 µM
  TGI: 71.9 µM
[49]
  GI50: 0.493 µM
  TGI: > 100 µM
[50]
  GI50: 0.789 µM
  TGI: > 100 µM
[51]
  GI50: 17.2 µM
  TGI: > 100 µM
[52]
  GI50: 0.603 µM
  TGI: > 100 µM
[53]
  GI50: 0.496 µM
  TGI: 30.3 µM
[54]
  GI50: 1.09 µM
  TGI: > 100 µM

## COc1ccccc1C1C(C#N)=C(N)Oc2cc(O)ccc21 (stereo not drawn)
[55]
  GI50: 36.8 µM
  TGI: > 100 µM
[2]
  GI50: 26.8 µM
  TGI: > 100 µM
[3]
  GI50: 22.3 µM
  TGI: 84 µM
[4]
  GI50: 24 µM
  TGI: 80.4 µM
[5]
  GI50: 17.7 µM
  TGI: 68.9 µM
[6]
  GI50: 12 µM
  TGI: 29.1 µM
[7]
  GI50: 15.8 µM
  TGI: 36.6 µM
[8]
  GI50: 26 µM
  TGI: 94.1 µM
[9]
  GI50: 34.6 µM
  TGI: > 100 µM
[10]
  GI50: 11.7 µM
  TGI: 35.5 µM
[56]
  GI50: 12.5 µM
  TGI: 26.4 µM
[11]
  GI50: 23.9 µM
  TGI: > 100 µM
[57]
  GI50: 18.8 µM
  TGI: > 100 µM
[12]
  GI50: 15.8 µM
  TGI: 60.2 µM
[13]
  GI50: 4.77 µM
  TGI: 33.7 µM
[14]
  GI50: 34.1 µM
  TGI: > 100 µM
[15]
  GI50: 16 µM
  TGI: 45.1 µM
[16]
  GI50: 1.98 µM
  TGI: 25.4 µM
[17]
  GI50: 4.68 µM
  TGI: > 100 µM
[18]
  GI50: 9.57 µM
  TGI: > 100 µM
[19]
  GI50: 30.8 µM
  TGI: > 100 µM
[20]
  GI50: 13.4 µM
  TGI: 35 µM
[21]
  GI50: 21.6 µM
  TGI: 88.6 µM
[22]
  GI50: 17.7 µM
  TGI: 49.7 µM
[23]
  GI50: 4.34 µM
  TGI: 24.8 µM
[24]
  GI50: 4.1 µM
  TGI: 9.52 µM
[25]
  GI50: 13.1 µM
  TGI: 45.4 µM
[26]
  GI50: 13.7 µM
  TGI: 35 µM
[27]
  GI50: 17.6 µM
  TGI: 49.4 µM
[28]
  GI50: 20 µM
  TGI: 58.8 µM
[29]
  GI50: 3.15 µM
  TGI: 17.1 µM
[30]
  GI50: 8.56 µM
  TGI: 68.2 µM
[31]
  GI50: 13 µM
  TGI: 51.4 µM
[32]
  GI50: 25.3 µM
  TGI: 85.9 µM
[33]
  GI50: 29.2 µM
  TGI: > 100 µM
[34]
  GI50: 35.2 µM
  TGI: > 100 µM
[36]
  GI50: 5.99 µM
  TGI: 19.8 µM
[37]
  GI50: 23.2 µM
  TGI: 75.6 µM
[38]
  GI50: 19.4 µM
  TGI: 91 µM
[39]
  GI50: 16 µM
  TGI: 80.6 µM
[40]
  GI50: 24.7 µM
  TGI: 66 µM
[41]
  GI50: 23 µM
  TGI: > 100 µM
[42]
  GI50: 25 µM
  TGI: 86.1 µM
[43]
  GI50: 22.4 µM
  TGI: 71.9 µM
[44]
  GI50: 16.8 µM
  TGI: 44.6 µM
[45]
  GI50: 11.6 µM
  TGI: 31.1 µM
[46]
  GI50: 21.3 µM
  TGI: 99.8 µM
[47]
  GI50: 23 µM
  TGI: 56.4 µM
[48]
  GI50: 3.48 µM
  TGI: 21.1 µM
[49]
  GI50: 29.1 µM
  TGI: > 100 µM
[50]
  GI50: 13.9 µM
  TGI: 76.3 µM
[51]
  GI50: 27.6 µM
  TGI: > 100 µM
[52]
  GI50: 19.8 µM
  TGI: 62.6 µM
[58]
  GI50: 27.7 µM
  TGI: 94.6 µM
[54]
  GI50: 29.3 µM
  TGI: > 100 µM
